These results are taken from ChEMBL document CHEMBL1201862, “PubChem BioAssay data set” (2004).

What all share (test): NCI anticancer screen, dose series, 48 h
In assay [1] the test system is 786-0.
For assay [2], the system named is SR.
The subject of assay [3] is SK-MEL-28.
The subject of assay [4] is HOP-62.
Assay [5] relates to SF-539.
For assay [6], the system named is MOLT-4.
The test system of assay [7] is M14.
Assay [8] deals with SK-MEL-2.
For assay [9], the system named is UACC-62.
Assay [10] relates to OVCAR-5.
For assay [11], the system named is CCRF-CEM.
Assay [12] has as its system UO-31.
The test system of assay [13] is NCI-H522.
The subject of assay [14] is LOX IMVI.
Assay [15] deals with A549.
Assay [16] relates to COLO 205.
Assay [17] has as its system EKVX.
Assay [18] has as its system MCF7.
In assay [19] the test system is MDA-MB-435.

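The compound was tested at five concentrations on cells cultured in 96-well plates, with a 48-hour exposure period. GI50 is the concentration that inhibits growth by half.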 Activity calls are given as the source filed them. Cut-off read from the data, not from the text of the source: active = GI50 up to about 1.1 µM and inactive = higher.

Turning to `c1ccc(OCc2nnc3n2N=C(c2ccccc2)CS3)cc1`, the GI50 in assay [1] is > 100 µM (inactive); in assay [2], > 100 µM (inactive); in [3] it was > 100 µM (inactive); in assay [4], > 100 µM (inactive); in assay [5], > 100 µM (inactive); in assay [6], 71.6 µM (inactive). For the same compound, the GI50 in assay [7] is > 100 µM (inactive); in [8] it was 75.3 µM (inactive); in assay [9] it was > 100 µM (inactive); in assay [10], > 100 µM (inactive); in assay [11], > 100 µM (inactive); in assay [12], 23 µM (inactive). For the same compound, the GI50 in assay [13] was 55.5 µM (inactive); in assay [14], > 100 µM (inactive); in assay [15], > 100 µM (inactive).

With `Nc1ncnc2c(C3OC(CO)C(O)C3O)scc12` (stereo not given), the GI50 in assay [1] is 0.217 µM (active); in assay [16] it was 0.026 µM (active); in assay [2] it was 0.319 µM (active); in [3], 0.873 µM (active); in assay [4], 0.133 µM (active); in [5], 4.94 µM (inactive). Also, the GI50 in assay [6] is 0.0767 µM (active); in assay [7], 0.00586 µM (active); in assay [8], 0.0431 µM (active); in assay [9], 0.00321 µM (active); in assay [10], 0.0222 µM (active); in assay [17], 1.04 µM (active). Besides, the GI50 in [11] is 0.0597 µM (active); in assay [12] it was 0.57 µM (active); in [13] it was 0.0107 µM (active); in assay [14] it was 0.0566 µM (active); in assay [15], 0.00721 µM (active).

Take `Cc1c(C2Cc3ccccc3N2C(=O)/C=C\C(=O)O)c2ccccc2n1C` (stereo not given): the GI50 is 18.4 µM (inactive) in [1]; 17.1 µM (inactive) in assay [16]; 30.1 µM (inactive) in assay [2]; 27.6 µM (inactive) in assay [4]; 21.6 µM (inactive) in assay [5]; 27.7 µM (inactive) in assay [6]. For the same compound, the GI50 in assay [7] was 17.8 µM (inactive); in [8], 17.7 µM (inactive); in assay [9] it was 16.9 µM (inactive); in [10] it was 48.4 µM (inactive); in assay [17], 30.2 µM (inactive); in assay [11] it was 30.8 µM (inactive). Also, the GI50 in assay [12] was 20.4 µM (inactive); in assay [13], 19.2 µM (inactive); in assay [14], 16.9 µM (inactive); in assay [15], 33 µM (inactive).

For `CCOc1ccccc1/C=C1\NC(=O)N(/C=C2\C(=O)Oc3ccccc3C2=O)C1=O`, the GI50 was 46.2 µM (inactive) in assay [18]; 50.9 µM (inactive) in assay [1]; 47.4 µM (inactive) in assay [16]; 62.4 µM (inactive) in assay [3]; 53.1 µM (inactive) in assay [4]; 78.5 µM (inactive) in assay [5]. The GI50 in [6] was 26.7 µM (inactive); in assay [7] it was 51.4 µM (inactive); in assay [8], 45.9 µM (inactive); in assay [19], 42.6 µM (inactive); in [9], 32.8 µM (inactive); in [10], > 100 µM (inactive). The GI50 in assay [17] was 51.6 µM (inactive); in assay [11] it was 24.2 µM (inactive); in [12], 23.1 µM (inactive); in assay [13] it was 29.2 µM (inactive); in assay [14] it was 63.7 µM (inactive); in assay [15] it was 42.6 µM (inactive).

Take `Cc1c(C(=O)CC(=O)C(=O)NC2C3CC4CC(C3)CC2C4)[n+]([O-])c2ccccc2[n+]1[O-]` (stereo not given): the GI50 in assay [1], in [16], in [2], in assay [3], in [4] and in assay [5] was > 100 µM (inactive) in each case. Also, the GI50 in assay [6], in assay [7], in assay [8], in assay [9], in assay [10] and in [17] was > 100 µM (inactive) throughout. Moreover, the GI50 in assay [11] was 90.6 µM (inactive); in assay [12], > 100 µM (inactive); in assay [13], > 100 µM (inactive); in assay [14], > 100 µM (inactive); in assay [15] it was > 100 µM (inactive).

For `O=C(O)CCC(NC(=O)c1ccc(Nc2nc3cc(C(F)(F)F)ccc3nc2-c2ccccc2)cc1)C(=O)O` (stereo not given), the GI50 in assay [18] was 64.9 µM (inactive); in assay [16], > 55.7 µM (inactive); in assay [3], > 100 µM (inactive); in assay [4], > 74.6 µM (inactive); in assay [5], > 84.7 µM (inactive); in [6], 44.6 µM (inactive). Further, the GI50 is > 100 µM (inactive) in assay [8]; > 60.1 µM (inactive) in assay [9]; 63.5 µM (inactive) in assay [10]; > 100 µM (inactive) in assay [17]; 97.3 µM (inactive) in [11]; > 94.6 µM (inactive) in assay [12]. The GI50 is 35.6 µM (inactive) in [13], 44.9 µM (inactive) in [14] and > 86.1 µM (inactive) in assay [15].

In the case of `NNC(=O)/C(NC(=O)c1ccccc1)=C(\N)c1ccc(Cl)cc1`, the GI50 was > 100 µM (inactive) in assay [1]; > 100 µM (inactive) in assay [16]; 83.8 µM (inactive) in assay [2]; > 100 µM (inactive) in [3]; > 100 µM (inactive) in assay [4]; > 100 µM (inactive) in assay [5]. Moreover, the GI50 in assay [6] is 28.3 µM (inactive); in assay [7], > 100 µM (inactive); in assay [8] it was > 100 µM (inactive); in assay [9] it was > 100 µM (inactive); in assay [10], > 100 µM (inactive); in assay [17], > 100 µM (inactive). For the same compound, the GI50 in assay [11] is 38.2 µM (inactive); in assay [12] it was > 100 µM (inactive); in [13], 61.1 µM (inactive); in [14] it was > 100 µM (inactive); in [15], > 100 µM (inactive).

With `CCC(=C(C#N)C#N)c1cc(OC)c(OC)c(OC)c1`, the GI50 in assay [16], in [2], in assay [3], in [4], in [5] and in assay [6] was > 100 µM (inactive) in each case. In addition, the GI50 in assay [7], in [8], in assay [9], in assay [10], in assay [17] and in assay [11] was > 100 µM (inactive) each time. For the same compound, the GI50 in assay [12], in assay [13], in [14] and in assay [15] was > 100 µM (inactive) in each case.

As for `c1ccc(C2=NOC3(c4ccccc4)SC4CCCCC4CN23)cc1` (stereo not given), the GI50 is 49.1 µM (inactive) in assay [1]; 27.6 µM (inactive) in assay [16]; 25 µM (inactive) in [2]; 89.1 µM (inactive) in assay [3]; 38.7 µM (inactive) in assay [4]; 18.7 µM (inactive) in assay [5]. The GI50 in [6] is 12.7 µM (inactive); in [7], 21.9 µM (inactive); in assay [8] it was 31.3 µM (inactive); in assay [9], 25 µM (inactive); in [10] it was > 100 µM (inactive); in assay [17] it was 57.9 µM (inactive). Also, the GI50 in assay [11] is 6.38 µM (inactive); in assay [12], 27.5 µM (inactive); in assay [13], 9.42 µM (inactive); in [14], 17 µM (inactive); in [15] it was 20.5 µM (inactive).

For the compound `COc1cc2c(cc1OC)C(C(c1ccccc1)c1ccccc1)N(C)CC2` (stereo not given), the GI50 in [18] is 52.4 µM (inactive); in [16], 16.1 µM (inactive); in assay [3], > 79.3 µM (inactive); in assay [4] it was > 100 µM (inactive); in [5], > 100 µM (inactive); in assay [6] it was 38.3 µM (inactive). The GI50 in assay [8] is > 85.9 µM (inactive); in assay [9] it was > 86.7 µM (inactive); in assay [10], > 100 µM (inactive); in [17], > 100 µM (inactive); in [11] it was 64.7 µM (inactive); in assay [12], > 63.7 µM (inactive). Also, the figures for the GI50 in assay [13], in [14] and in assay [15] were 74.1 µM (inactive), > 81.1 µM (inactive) and > 100 µM (inactive), respectively.

Take `CC(C)(c1ccc(OC#N)cc1)c1ccc(OC#N)cc1`: the GI50 was > 100 µM (inactive) in assay [1]; > 46.6 µM (inactive) in assay [16]; 27 µM (inactive) in assay [2]; > 100 µM (inactive) in assay [3]; > 100 µM (inactive) in [4]; > 100 µM (inactive) in assay [5]. Moreover, the GI50 in assay [6], in assay [7], in assay [8], in assay [9], in assay [10] and in assay [17] was > 100 µM (inactive) throughout. Moreover, the GI50 is > 55.7 µM (inactive) in assay [11]; > 100 µM (inactive) in [12]; 23.2 µM (inactive) in assay [13]; > 48.4 µM (inactive) in [14]; > 100 µM (inactive) in assay [15].

Turning to `O=C1C=C2SC3C[C@@]24CC1[N+]1=c2c4c(c(O)c4c2=C(C=N4)CC1)N3`, the GI50 is 2.08 µM (inactive) in assay [18]; 1.91 µM (inactive) in assay [16]; 1.94 µM (inactive) in assay [3]; 17.8 µM (inactive) in assay [4]; 1.9 µM (inactive) in assay [5]; 1.53 µM (inactive) in [6]. The GI50 in assay [8] is 1.82 µM (inactive); in assay [9], 1.78 µM (inactive); in assay [10] it was 2.17 µM (inactive); in assay [17] it was 2.27 µM (inactive); in assay [11], 2 µM (inactive); in [12] it was 16.6 µM (inactive). For the same compound, the GI50 in assay [13] is 1.58 µM (inactive); in assay [14] it was 2.51 µM (inactive); in assay [15], 6.17 µM (inactive).
